Experimental data as given in patent US20180228743A1, “COMPOUNDS AND METHODS OF PROMOTING MYELINATION” (Case Western Reserve University, priority 2016, published 2018).
Where “and” joins values, the source holds several entries; their conditions need not be identical. Equal entries are not always repeated. Structures can show the parent of a compound that is named as a salt. Where two headings read alike, the source gives them in different places. Each block holds one molecule with its values, some of them ahead of it.

Experiments:
EpiSC-derived OPCs [1] = assay: High-throughput screening of 3,000 bioactive small molecules for MBP+ oligodendrocyte formation from OPCs; format: cell-based, mouse; details: 2 μM, 72 h; for fold induction at 2 µM: Mus musculus, relative to DMSO controls of the same plate, read-out: fold-change in % MBP + oligodendrocytes; for % 0ligos: MBP+ oligodendrocytes
Text: Plates were imaged on the Operetta High Content Imaging and Analysis system (PerkinElmer) and a set of 6 fields captured from each well resulting in an average of 1200 cells being scored per well. Analysis (PerkinElmer Harmony and Columbus software) began by identifying intact nuclei stained by DAPI; that is, those traced nuclei that were larger than 300 μm^2 in surface area. Each traced nucleus region was then expanded by 50% and cross-referenced with the […] (MBP) stain to identify oligodendrocyte nuclei, and from this the percentage of oligodendrocytes was calculated. In some experiments, the total process length of MBP+ oligodendrocytes was calculated as previously described.
EpiSC-derived OPCs were grown and expanded in poly-ornithine and laminin-coated flasks before harvesting for plating. Cells were dispensed in differentiation media supplemented with Noggin (R&D Systems; 100 ng/ml), Neurotrophin 3 (R&D Systems; 10 ng/ml), cAMP (Sigma; 50 μM), and IGF-1 (R&D Systems; 100 ng/ml)) using a Biotek EL406 Microplate Washer Dispenser (Biotek) equipped with 5 μL dispense cassette (Biotek), into poly-D-lysine/laminin (Sigma, L2020; 4 μg/ml)-coated sterile, 384-well, CellCarrier ultra plates (PerkinElmer), to a final density of 12,500 cells per well and allowed to attach for 45 min before addition of drug. A 3 mM stock of bioactive compound library in dimethylsulphoxide (DMSO) were prepared in an Abgene storage 384-well plate (ThermoFisher Scientific; AB1055). These were added to assay plates using a 50 nL solid pin tool attached to Janus automated workstation (Perkin Elmer), resulting in a final screening concentration of 2 μM. Cells were incubated at 37° C. for 1 hour and then T3 (Sigma; 40 ng/ml) was added to all wells except negative controls, to which FGF (20 ng/ml) was added instead. Negative controls and T3-alone were included in each assay plate. After incubation at 37° C. for 72 h, cells were fixed, washed and stained similar to 96-well OPC assay protocol, although all the washing steps were performed using a Biotek EL406 Microplate Washer Dispenser (Biotek) equipped with a 96-well aspiration manifold. Cells were stained with DAPI (Sigma; 1 μg/ml) and MBP antibody (Abcam, ab7349; 1:100). Plates were imaged on the Operetta High Content Imaging and Analysis system (PerkinElmer) and a set of 4 fields captured from each well resulting in an average of 700 cells being scored per well. Analysis was performed as in High-Content Imaging and Analysis, above. All plates for the primary screen were processed and analyzed simultaneously to minimize variability. Molecules causing more than 20% reduction in nuclear count relative to DMSO control wells were removed from consideration, and hits were called on the basis of largest fold-increase in percentage of MBP+ oligodendrocytes relative to DMSO controls within the same plate.

rat CYP51 = target: T1, rat CYP51 (Rattus norvegicus, UniProt Q64654); assay: CYP51 enzymatic assay (LC/MS quantitation of FF-MAS); format: biochemical; details: lanosterol 50 μM, 30 minutes; read-out: IC50 for inhibition of rodent CYP51 in vitro
T1 construct: purchased Cypex, Inc
T1 sequence (Q64654 1-503): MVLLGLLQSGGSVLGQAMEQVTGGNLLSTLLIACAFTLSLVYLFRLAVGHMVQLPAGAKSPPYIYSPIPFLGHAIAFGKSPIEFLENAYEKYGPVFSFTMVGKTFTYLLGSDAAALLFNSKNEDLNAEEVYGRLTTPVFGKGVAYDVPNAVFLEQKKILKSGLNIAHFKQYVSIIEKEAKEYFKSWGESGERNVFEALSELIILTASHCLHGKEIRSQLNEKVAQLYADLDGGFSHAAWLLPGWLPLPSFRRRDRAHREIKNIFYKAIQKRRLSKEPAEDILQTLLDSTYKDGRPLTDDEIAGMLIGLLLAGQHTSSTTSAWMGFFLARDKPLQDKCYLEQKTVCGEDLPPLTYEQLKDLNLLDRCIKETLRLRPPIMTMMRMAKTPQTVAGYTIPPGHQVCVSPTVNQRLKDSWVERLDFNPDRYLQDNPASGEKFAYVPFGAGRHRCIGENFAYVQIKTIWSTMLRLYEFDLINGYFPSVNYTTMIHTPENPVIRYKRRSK

EpiSC-derived OPCs [2] = assay: In vitro phenotypic screening of OPCs (MBP+ oligodendrocytes at 72 h); format: cell-based, mouse; details: for oligodendrocyte formation in combination with ketoconazole: ketoconazole 2.5 μM (maximally effective dose)
EBP = target: T2, EBP (Mus musculus, UniProt P70245); assay: EBP enzymatic assay (GC/MS); format: biochemical; details: 10 μM, zymostenol 25 μM
T2 construct: active EBP was obtained from mouse microsomes; from tissue
T2 sequence (P70245 1-230): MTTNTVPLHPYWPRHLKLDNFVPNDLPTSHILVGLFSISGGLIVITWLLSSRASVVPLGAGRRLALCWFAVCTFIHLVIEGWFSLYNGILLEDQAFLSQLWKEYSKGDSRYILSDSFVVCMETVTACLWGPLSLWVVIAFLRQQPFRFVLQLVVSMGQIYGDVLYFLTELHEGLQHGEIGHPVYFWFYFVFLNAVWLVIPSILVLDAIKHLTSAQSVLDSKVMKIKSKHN

OPCs = assay: GC/MS-based sterol profiling in OPCs; format: cell-based, mouse; details: for sterol levels / sterol intermediate accumulation in OPCs: 24 h treatment (siRNA 96 h)
EpiSC-derived OPCs [3] = assay: Oligodendrocyte formation on electrospun microfibers; format: cell-based, mouse; details: 14 days
Description: A 12-well plate containing Mimetex aligned scaffold (microfiber plate, AMSBIO, AMS.TECL-006-1X, Electrospun poly-L-lactide Scaffold, […] cell crown inserts) was prepared as previously described. Briefly, inserts were sterilized with 70% ethanol and washed with PBS before being coated with polyornithine and laminin. After laminin coating, 100,000 cells/mL of EpiSC-derived OPCs were plated in differentiation medium. After 24 h the media was replaced with fresh media containing small molecule treatments. Every 48 h the media was replaced with fresh compound containing media for a total of 14 days. Plates were fixed with 4% PFA, permeabilized with 0.1% Triton X-100, and blocked with 10% donkey serum (v/v) in PBS for 60 min. Plates were stained for MBP (Abcam, ab7349; 1:100) and DAPI staining (Sigma; 5 μg/ml). After staining, the inserts were moved into new 12-well plate and covered with 2 mL of PBS before imaging in Operetta high content Imaging and analysis system. […] Analysis (PerkinElmer Harmony and Columbus software) identified intact nuclei stained by DAPI and calculated the MBP signal intensity per cell per well. Microfiber insert tracking images were taken using a Leica DMi8 with a 20× Dry/NA 0.40 objective. Microfiber plate inserts were mounted using Flouromount-G (SouthernBiotech) and allowed to partially harden before coverslips were added and the insert ring was removed. Confocal images were obtained on a Leica SP8 confocal scanning microscope, with 40× oil/NA 1.30 objective. Confocal stacks of 0.336 μm z-steps were taken at 1024×1024. Each fluorophore was excited sequentially and all contrast and brightness changes were applied consistently between images.

LPC-lesioned spinal cord = assay: LPC focal demyelination of spinal cord, remyelination histology; format: in vivo, mouse; details: ifenprodil 10 mg per kg, tamoxifen 2 mg per kg, daily intraperitoneal, 8 days from day 4 after lesion
[4] = system: human induced pluripotent stem cell-derived cortical spheroids; assay: GC/MS sterol profiling in human cortical spheroids; format: cell-based; details: 2 μM, 24 h
[5] = system: human glioma cells (GBM528); assay: GC/MS sterol profiling in human glioma cell line; format: cell-based; details: 24 h
mouse brain = assay: Analysis of mouse brain sterol levels (GC/MS); format: in vivo; details: miconazole 10 mg per kg, ifenprodil 10 mg per kg, tamoxifen 2 mg per kg; 3 days intraperitoneal dosing
[6] = mouse; cited from earlier work
T47D cells = details: 5 days

IC50 (rat CYP51): 300 to 700 nM
Compound: Clc1ccccc1C(c1ccccc1)(c1ccccc1)n1ccnc1 [Clotrimazole]
cell viability (% relative to DMS0) (EpiSC-derived OPCs [1]): 112.83% and 122.50%
fold induction at 2 µM (EpiSC-derived OPCs [1]): 3.85

Compound: Cc1cc(C)c(CNC(=O)c2cc(-c3ccc(CN4CCOCC4)cc3)cc3c2cnn3C2CCCC2)c(=O)[nH]1 [EPZ005687]
formation of MBP+ oligodendrocytes from OPCs (EpiSC-derived OPCs [2]; 72 h): enhanced oligodendrocyte formation in both our mouse epiblast stem cell-derived OPCs and mouse primary OPCs
inhibition of EBP enzymatic activity (EBP): directly inhibiting EBP enzymatic activity
sterol levels / sterol intermediate accumulation in OPCs (OPCs): uniquely caused accumulation of zymosterol and zymostenol in OPCs
cell viability (% relative to DMS0) (EpiSC-derived OPCs [1]): 91.36%
% 0ligos (EpiSC-derived OPCs [1]): 50.00%
fold induction at 2 µM (EpiSC-derived OPCs [1]): 5.9

Compound: OCCOCCN1CCN(C(c2ccccc2)c2ccc(Cl)cc2)CC1 (stereo not shown) [Hydroxyzine 2HCl]
inhibition of EBP enzymatic activity (EBP): directly inhibiting EBP enzymatic activity
cell viability (% relative to DMS0) (EpiSC-derived OPCs [1]): 134.19%
% 0ligos (EpiSC-derived OPCs [1]): 40.63%
fold induction at 2 µM (EpiSC-derived OPCs [1]): 4.8

IC50 (rat CYP51): 300 to 700 nM
Compound: CC(=O)N1CCN(c2ccc(OCC3COC(Cn4ccnc4)(c4ccc(Cl)cc4Cl)O3)cc2)CC1 (stereo not shown) [Ketoconazole]
MBP+ oligodendrocyte tracking along and wrapping of microfibers (EpiSC-derived OPCs [3]): significantly enhanced MBP+ oligodendrocyte tracking along and wrapping of the microfibers
% 0ligos (EpiSC-derived OPCs [1]): 52.77%

inhibition of EBP enzymatic activity (EBP): clear inhibition
Compound: COc1ccc(S(=O)(=O)N2CCC(N3CCC(C)CC3)CC2)cc1 [TASIN-1]
MBP+ oligodendrocyte tracking along and wrapping of microfibers (EpiSC-derived OPCs [3]): significantly enhanced MBP+ oligodendrocyte tracking along and wrapping of the microfibers
formation of MBP+ oligodendrocytes from OPCs (EpiSC-derived OPCs [2]; 72 h): enhanced formation of MBP+ oligodendrocytes

Compound: CCC(C)(C)c1ccc(CC(C)CN2C[C@@H](C)O[C@@H](C)C2)cc1 (stereo partly shown) [amorolfine, Amorolfine]
MBP+ oligodendrocyte tracking along and wrapping of microfibers (EpiSC-derived OPCs [3]): significantly enhanced MBP+ oligodendrocyte tracking along and wrapping of the microfibers
formation of MBP+ oligodendrocytes from OPCs (EpiSC-derived OPCs [2]; 72 h): enhanced formation of MBP+ oligodendrocytes

Compound: CN1[C@@H]2CC[C@H]1C[C@@H](OC(c1ccccc1)c1ccccc1)C2 [benztropine, Benztropine]
oligodendrocyte formation in combination with ketoconazole (EpiSC-derived OPCs [2]; 72 h): did not enhance differentiation above levels seen for ketoconazole alone
inhibition of EBP enzymatic activity (EBP): clear inhibition
sterol levels / sterol intermediate accumulation in OPCs (OPCs): induced accumulation of zymostenol and zymosterol and decreased basal sterol levels

Compound: CC(C(O)c1ccc(O)cc1)N1CCC(Cc2ccccc2)CC1 (stereo not shown) [lfenprodil Tartrate]
remyelination of LPC lesion (LPC-lesioned spinal cord): remyelination was widespread throughout the lesion
8,9-unsaturated sterol accumulation in human cortical spheroids [4]: led to 8,9-unsaturated sterol accumulation
sterol intermediate accumulation in human glioma cell line [5]: caused accumulation of the expected sterol intermediates
accumulation of 8,9-unsaturated sterols in brain (mouse brain): induced significant accumulation of 8,9-unsaturated sterols in the brain
blood brain barrier penetration [6]: known to cross the mouse blood brain barrier
cell viability (% relative to DMS0) (EpiSC-derived OPCs [1]): 103.79%
cell viability (% relative to DMS0) (EpiSC-derived OPCs [1]; listed as lfenprodil tartrate): 106.02%
fold induction at 2 µM (EpiSC-derived OPCs [1]): 4.89

Compound: Clc1ccc(COC(Cn2ccnc2)c2ccc(Cl)cc2Cl)c(Cl)c1 (stereo not shown) [miconazole, Miconazole]
8,9-unsaturated sterol accumulation in human cortical spheroids [4]: led to 8,9-unsaturated sterol accumulation
sterol intermediate accumulation in human glioma cell line [5]: caused accumulation of the expected sterol intermediates
IC50 (rat CYP51): 300 to 700 nM

Compound: OCCOc1ccc(/C(=C(/CCCl)c2ccccc2)c2ccccc2)cc1 [ospemifene, Ospemifene]
formation of MBP+ oligodendrocytes from OPCs (EpiSC-derived OPCs [2]): did not enhance differentiation to MBP+ oligodendrocytes
antiestrogen effect on estrogen-dependent growth (T47D cells): comparable antiestrogen effects
enzyme inhibited in OPCs as indicated by sterol profile (OPCs): did not inhibit EBP in OPCs

Compound: CC/C(=C(\c1ccccc1)c1ccc(OCCN(C)C)cc1)c1ccccc1 [tamoxifen, Tamoxifen]
oligodendrocyte formation in combination with ketoconazole (EpiSC-derived OPCs [2]; 72 h): did not enhance differentiation above levels seen for ketoconazole alone
remyelination of LPC lesion (LPC-lesioned spinal cord): remyelination was widespread throughout the lesion
sterol intermediate accumulation in human glioma cell line [5]: caused accumulation of the expected sterol intermediates
inhibition of EBP enzymatic activity (EBP): clear inhibition
sterol levels / sterol intermediate accumulation in OPCs (OPCs): induced accumulation of zymostenol and zymosterol and decreased basal sterol levels

enzyme inhibited in OPCs as indicated by sterol profile (OPCs; 24 h): inhibited EBP
Compound: CN(C)CCOc1ccc(/C(=C(/CCCl)c2ccccc2)c2ccccc2)cc1 [toremifene, Toremifene]
formation of MBP+ oligodendrocytes from OPCs (EpiSC-derived OPCs [2]; 72 h): enhanced MBP+ oligodendrocyte generation over a wide dose range
antiestrogen effect on estrogen-dependent growth (T47D cells): comparable antiestrogen effects
